Test results published in ChEMBL document CHEMBL1132004, “Antagonism of the TXA2 receptor by seratrodast: a structural approach” (Bioorg Med Chem Lett, 1999).

Assay: The pKa of the sulfonamido group of the compound
Format: physicochemical

For `Cc1cccc(Nc2ccncc2S(=O)(=O)/N=C(\NC#N)N2CCCCCC2)c1`, which pKa is on record?
Its pKa is 6.
